Bridge positions count the residues as written; N and C are the ends. Square brackets hold non-standard residues; d marks the D form. Peptide text beside a SMILES is read from it. * marks the point of attachment. Ala(morpholin-4-yl) = N[C@@H](CN1CCOCC1)C(=O)O; Phe(4-COOH) = N[C@@H](Cc1ccc(C(=O)O)cc1)C(=O)O; Bip = N[C@@H](Cc1ccc(-c2ccccc2)cc1)C(=O)O; Phe(4-CN) = N#Cc1ccc(C[C@H](N)C(=O)O)cc1; Phe(3-Me) = Cc1cccc(C[C@H](N)C(=O)O)c1; Abu(3S-NH2) = C[C@H](N)[C@H](N)C(=O)O; Val(3-OH) = CC(C)(O)[C@H](N)C(=O)O; hArg = N=C(N)NCCCC[C@H](N)C(=O)O; Cha = N[C@@H](CC1CCCCC1)C(=O)O; dDab = NCC[C@@H](N)C(=O)O; Carboxymethyl = O=C(O)C*; Orn = NCCC[C@H](N)C(=O)O; Aun = NCCCCCCCCCCC(=O)O; Dab = NCC[C@H](N)C(=O)O; AEEA = NCCOCCOCC(=O)O
Molecular target: T1, PD-1/PD-L1 interaction (PE-labeled human PD-L1-Ig binding to Jurkat cell line over-expressing human PD-1) (Homo sapiens, UniProt Q15116)
T1 construct: expressed in transfected cells; host or cells: Jurkat
T1 sequence (Q15116 25-288): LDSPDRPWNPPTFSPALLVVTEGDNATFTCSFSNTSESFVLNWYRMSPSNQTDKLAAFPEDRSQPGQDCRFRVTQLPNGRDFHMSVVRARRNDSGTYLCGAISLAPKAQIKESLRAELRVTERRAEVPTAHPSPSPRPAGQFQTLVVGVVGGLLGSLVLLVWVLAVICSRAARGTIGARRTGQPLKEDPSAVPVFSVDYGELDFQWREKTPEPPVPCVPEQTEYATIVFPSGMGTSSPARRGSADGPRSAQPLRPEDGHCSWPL
Experiment: Jurkat-PD-1 Cell Binding High-Content Screening Assay (CBA)
Assay type: cell-based
Details: Jurkat cell line over-expressing human PD-1; PE-labeled PD-L1-Ig 20 nM final; read-out: Jurkat hPD1-PDL1 IC50
Procedure, shortened: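 Jurkat-hPD-1 cells, DMEM/10% FCS; cpd 2 h 37° C; PE-PD-L1-Ig 20 nM final, 1 h; 4% PFA fix + Hoechst 33342, 3× dPBS wash; high-content imaging read-out.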

Row | SMILES | IC50 [nM]
1 | Cc1cccc(C[C@@H]2NC(=O)[C@H](CC(=O)O)NC(=O)[C@H](Cc3ccc(OCC(=O)O)cc3)NC(=O)[C@H](CCCCNC(=N)N)NC(=O)CSC[C@@H](C(=O)N[C@@H](CCN)C(=O)NCCCCCCCCCCC(=O)O)NC(=O)[C@H](CO)NC(=O)[C@H](C(C)(C)O)NC(=O)[C@H](CC3CCCCC3)NC(=O)[C@H](CCN)NC(=O)[C@@H](CC(C)C)NC(=O)[C@H](CCCN)NC(=O)[C@H](Cc3ccc(OCC(=O)O)cc3)NC(=O)[C@H](Cc3ccc(-c4ccccc4)cc3)NC(=O)[C@H](Cc3ccc(OCC(=O)O)cc3)NC2=O)c1 [Compound 2234] ({CH2CO}-[hArg]Y(Carboxymethyl)D[Phe(3-Me)]Y(Carboxymethyl)[Bip]Y(Carboxymethyl)[Orn][dL][Dab][Cha][Val(3-OH)]SC[Dab][Aun]-OH; thioether N-14) | 2.6
2 | Cc1cccc(C[C@@H]2NC(=O)[C@H](CC(=O)O)NC(=O)[C@H](Cc3ccc(OCC(=O)O)cc3)NC(=O)[C@H](CN3CCOCC3)NC(=O)CSC[C@@H](C(=O)N[C@@H](CCN)C(=O)NCCCCCCCCCCC(=O)O)NC(=O)[C@H](CO)NC(=O)[C@H](C(C)(C)O)NC(=O)[C@H](CC3CCCCC3)NC(=O)[C@H](CCN)NC(=O)[C@@H](CC(C)C)NC(=O)[C@H](CCCN)NC(=O)[C@H](Cc3ccc(OCC(=O)O)cc3)NC(=O)[C@H](Cc3ccc(-c4ccccc4)cc3)NC(=O)[C@H](Cc3ccc(OCC(=O)O)cc3)NC2=O)c1 [Compound 2235] ({CH2CO}-[Ala(morpholin-4-yl)]Y(Carboxymethyl)D[Phe(3-Me)]Y(Carboxymethyl)[Bip]Y(Carboxymethyl)[Orn][dL][Dab][Cha][Val(3-OH)]SC[Dab][Aun]-OH; thioether N-14) | 0.9
3 | Cc1cccc(C[C@@H]2NC(=O)[C@H](CC(=O)O)NC(=O)[C@H](Cc3ccc(OCC(=O)O)cc3)NC(=O)[C@@H](CCN)NC(=O)CSC[C@@H](C(=O)N[C@@H](CCN)C(=O)NCCCCCCCCCCC(=O)O)NC(=O)[C@H](CO)NC(=O)[C@H](C(C)(C)O)NC(=O)[C@H](CC3CCCCC3)NC(=O)[C@H](CCN)NC(=O)[C@@H](CC(C)C)NC(=O)[C@H](CCCN)NC(=O)[C@H](Cc3ccc(OCC(=O)O)cc3)NC(=O)[C@H](Cc3ccc(-c4ccccc4)cc3)NC(=O)[C@H](Cc3ccc(OCC(=O)O)cc3)NC2=O)c1 [Compound 2236] ({CH2CO}-[dDab]Y(Carboxymethyl)D[Phe(3-Me)]Y(Carboxymethyl)[Bip]Y(Carboxymethyl)[Orn][dL][Dab][Cha][Val(3-OH)]SC[Dab][Aun]-OH; thioether N-14) | 185
4 | Cc1cccc(C[C@@H]2NC(=O)[C@H](CC(=O)O)NC(=O)[C@H](Cc3ccc(OCC(=O)O)cc3)NC(=O)[C@H]([C@H](C)N)NC(=O)CSC[C@@H](C(=O)N[C@@H](CCN)C(=O)NCCCCCCCCCCC(=O)O)NC(=O)[C@H](CO)NC(=O)[C@H](C(C)(C)O)NC(=O)[C@H](CC3CCCCC3)NC(=O)[C@H](CCN)NC(=O)[C@@H](CC(C)C)NC(=O)[C@H](CCCN)NC(=O)[C@H](Cc3ccc(OCC(=O)O)cc3)NC(=O)[C@H](Cc3ccc(-c4ccccc4)cc3)NC(=O)[C@H](Cc3ccc(OCC(=O)O)cc3)NC2=O)c1 [Compound 2237] ({CH2CO}-[Abu(3S-NH2)]Y(Carboxymethyl)D[Phe(3-Me)]Y(Carboxymethyl)[Bip]Y(Carboxymethyl)[Orn][dL][Dab][Cha][Val(3-OH)]SC[Dab][Aun]-OH; thioether N-14) | 2.6
5 | Cc1cccc(C[C@@H]2NC(=O)[C@H](CC(=O)O)NC(=O)[C@H](Cc3ccc(OCC(=O)O)cc3)NC(=O)[C@H](CCCCN)NC(=O)CSC[C@@H](C(=O)N[C@@H](CCN)C(=O)NCCCCCCCCCCC(=O)O)NC(=O)[C@H](CO)NC(=O)[C@H](C(C)(C)O)NC(=O)[C@H](CC3CCCCC3)NC(=O)[C@H](CCN)NC(=O)[C@@H](CC(C)C)NC(=O)[C@H](CCCN)NC(=O)[C@H](Cc3ccc(OCC(=O)O)cc3)NC(=O)[C@H](Cc3ccc(-c4ccccc4)cc3)NC(=O)[C@H](Cc3ccc(OCC(=O)O)cc3)NC2=O)c1 [Compound 2238] ({CH2CO}-KY(Carboxymethyl)D[Phe(3-Me)]Y(Carboxymethyl)[Bip]Y(Carboxymethyl)[Orn][dL][Dab][Cha][Val(3-OH)]SC[Dab][Aun]-OH; thioether N-14) | 11.2
6 | COC[C@@H]1NC(=O)CSC[C@@H](C(=O)N[C@@H](CCN)C(=O)NCCOCCOCC(=O)NCCCCCCCCCCC(=O)O)NC(=O)[C@H](CO)NC(=O)[C@H](C(C)(C)O)NC(=O)[C@H](CC2CCCCC2)NC(=O)[C@H](CCN)NC(=O)[C@@H](CC(C)C)NC(=O)[C@H](CCCN)NC(=O)[C@H](Cc2ccc(OCC(=O)O)cc2)NC(=O)[C@H](Cc2ccc(-c3ccccc3)cc2)NC(=O)[C@H](Cc2ccc(OCC(=O)O)cc2)NC(=O)[C@H](Cc2cccc(C)c2)NC(=O)[C@H](CC(=O)O)NC(=O)[C@H](Cc2ccc(OCC(=O)O)cc2)NC1=O [Compound 2239] ({CH2CO}-S(Me)Y(Carboxymethyl)D[Phe(3-Me)]Y(Carboxymethyl)[Bip]Y(Carboxymethyl)[Orn][dL][Dab][Cha][Val(3-OH)]SC[Dab][AEEA][Aun]-OH; thioether N-14) | 1.6
7 | Cc1cccc(C[C@@H]2NC(=O)[C@H](CC(=O)O)NC(=O)[C@H](Cc3ccc(OCC(=O)O)cc3)NC(=O)[C@H](Cc3ccc(C#N)cc3)NC(=O)CSC[C@@H](C(=O)N[C@@H](CCN)C(=O)NCCOCCOCC(=O)NCCCCCCCCCCC(=O)O)NC(=O)[C@H](CO)NC(=O)[C@H](C(C)(C)O)NC(=O)[C@H](CC3CCCCC3)NC(=O)[C@H](CCN)NC(=O)[C@@H](CC(C)C)NC(=O)[C@H](CCCN)NC(=O)[C@H](Cc3ccc(OCC(=O)O)cc3)NC(=O)[C@H](Cc3ccc(-c4ccccc4)cc3)NC(=O)[C@H](Cc3ccc(OCC(=O)O)cc3)NC2=O)c1 [Compound 2240] ({CH2CO}-[Phe(4-CN)]Y(Carboxymethyl)D[Phe(3-Me)]Y(Carboxymethyl)[Bip]Y(Carboxymethyl)[Orn][dL][Dab][Cha][Val(3-OH)]SC[Dab][AEEA][Aun]-OH; thioether N-14) | 7.3
8 | COC[C@@H]1NC(=O)CSC[C@@H](C(=O)N[C@@H](CCN)C(=O)NCCOCCOCC(=O)NCCCCCCCCCCC(=O)O)NC(=O)[C@H](CO)NC(=O)[C@H](C(C)(C)O)NC(=O)[C@H](CC2CCCCC2)NC(=O)[C@H](CCN)NC(=O)[C@@H](CC(C)C)NC(=O)[C@H](CCCN)NC(=O)[C@H](Cc2ccc(OCC(=O)O)cc2)NC(=O)[C@H](Cc2ccc(-c3ccccc3)cc2)NC(=O)[C@H](Cc2ccc(OCC(=O)O)cc2)NC(=O)[C@H](Cc2cccc(C)c2)NC(=O)[C@H](CC(=O)O)NC(=O)[C@H](Cc2ccc(C(=O)O)cc2)NC1=O [Compound 2241] ({CH2CO}-S(Me)[Phe(4-COOH)]D[Phe(3-Me)]Y(Carboxymethyl)[Bip]Y(Carboxymethyl)[Orn][dL][Dab][Cha][Val(3-OH)]SC[Dab][AEEA][Aun]-OH; thioether N-14) | 3.7
9 | Cc1cccc(C[C@@H]2NC(=O)[C@H](CC(=O)O)NC(=O)[C@H](Cc3ccc(C(=O)O)cc3)NC(=O)[C@H](Cc3ccc(C#N)cc3)NC(=O)CSC[C@@H](C(=O)N[C@@H](CCN)C(=O)NCCOCCOCC(=O)NCCCCCCCCCCC(=O)O)NC(=O)[C@H](CO)NC(=O)[C@H](C(C)(C)O)NC(=O)[C@H](CC3CCCCC3)NC(=O)[C@H](CCN)NC(=O)[C@@H](CC(C)C)NC(=O)[C@H](CCCN)NC(=O)[C@H](Cc3ccc(OCC(=O)O)cc3)NC(=O)[C@H](Cc3ccc(-c4ccccc4)cc3)NC(=O)[C@H](Cc3ccc(OCC(=O)O)cc3)NC2=O)c1 [Compound 2242] ({CH2CO}-[Phe(4-CN)][Phe(4-COOH)]D[Phe(3-Me)]Y(Carboxymethyl)[Bip]Y(Carboxymethyl)[Orn][dL][Dab][Cha][Val(3-OH)]SC[Dab][AEEA][Aun]-OH; thioether N-14) | 4
10 | Cc1cccc(C[C@@H]2NC(=O)[C@H](CC(=O)O)NC(=O)[C@H](Cc3ccc(OCC(=O)O)cc3)NC(=O)[C@H]([C@@H](C)O)NC(=O)CSC[C@@H](C(=O)N[C@@H](CCN)C(=O)NCCOCCOCC(=O)NCCCCCCCCCCC(=O)O)NC(=O)[C@H](CO)NC(=O)[C@H](C(C)(C)O)NC(=O)[C@H](CC3CCCCC3)NC(=O)[C@H](CCN)NC(=O)[C@@H](CC(C)C)NC(=O)[C@H](CCCN)NC(=O)[C@H](Cc3ccc(OCC(=O)O)cc3)NC(=O)[C@H](Cc3ccc(-c4ccccc4)cc3)NC(=O)[C@H](Cc3ccc(OCC(=O)O)cc3)NC2=O)c1 [Compound 2243] ({CH2CO}-TY(Carboxymethyl)D[Phe(3-Me)]Y(Carboxymethyl)[Bip]Y(Carboxymethyl)[Orn][dL][Dab][Cha][Val(3-OH)]SC[Dab][AEEA][Aun]-OH; thioether N-14) | 1.7
11 | Cc1cccc(C[C@@H]2NC(=O)[C@H](CC(=O)O)NC(=O)[C@H](Cc3ccc(OCC(=O)O)cc3)NC(=O)[C@H](CCCNC(=N)N)NC(=O)CSC[C@@H](C(=O)N[C@@H](CCN)C(=O)NCCOCCOCC(=O)NCCCCCCCCCCC(=O)O)NC(=O)[C@H](CO)NC(=O)[C@H](C(C)(C)O)NC(=O)[C@H](CC3CCCCC3)NC(=O)[C@H](CCN)NC(=O)[C@@H](CC(C)C)NC(=O)[C@H](CCCN)NC(=O)[C@H](Cc3ccc(OCC(=O)O)cc3)NC(=O)[C@H](Cc3ccc(-c4ccccc4)cc3)NC(=O)[C@H](Cc3ccc(OCC(=O)O)cc3)NC2=O)c1 [Compound 2244] ({CH2CO}-RY(Carboxymethyl)D[Phe(3-Me)]Y(Carboxymethyl)[Bip]Y(Carboxymethyl)[Orn][dL][Dab][Cha][Val(3-OH)]SC[Dab][AEEA][Aun]-OH; thioether N-14) | 0.6
12 | Cc1cccc(C[C@@H]2NC(=O)[C@H](CC(=O)O)NC(=O)[C@H](Cc3ccc(O)cc3)NC(=O)[C@H]([C@@H](C)O)NC(=O)CSC[C@@H](C(=O)N[C@@H](CCN)C(=O)NCCOCCOCC(=O)NCCCCCCCCCCC(=O)O)NC(=O)[C@H](CO)NC(=O)[C@H](C(C)(C)O)NC(=O)[C@H](CC3CCCCC3)NC(=O)[C@H](CCN)NC(=O)[C@@H](CC(C)C)NC(=O)[C@H](CCCN)NC(=O)[C@H](Cc3ccc(OCC(=O)O)cc3)NC(=O)[C@H](Cc3ccc(-c4ccccc4)cc3)NC(=O)[C@H](Cc3ccc(OCC(=O)O)cc3)NC2=O)c1 [Compound 2245] ({CH2CO}-TYD[Phe(3-Me)]Y(Carboxymethyl)[Bip]Y(Carboxymethyl)[Orn][dL][Dab][Cha][Val(3-OH)]SC[Dab][AEEA][Aun]-OH; thioether N-14) | 1.2

— US20260022142A1, “MACROCYCLIC IMMUNOMODULATORS” (Bristol-Myers Squibb Company, priority 2022, published 2026)
